Reference: patent US5004833A, “KS-501 derivatives” (Kyowa Hakko Kogyo Co., Ltd., priority 1988, dated 1991)
In brackets after ≈: the same amount, converted by molar mass. Read-outs that look alike come from different tables or passages of the source.

Tested on: washed platelet
Experiment: Effect on platelet aggregation (washed platelets stimulated with thrombin or platelet-activating factor, Born method)
Assay type: cell-based, white rabbit
Conditions: for IC50: Oryctolagus cuniculus, 0.05 h, 3 min incubation, 37° C.
Procedure: 8.5 vol of blood was collected from the carotid arteries of a white rabbit, and placed in a tube containing 1.5 vol of a citrate-dextrose solution (71 mM citric acid, 85 mM sodium citrate and 111 mM dextrose). The thus obtained blood was centrifuged at 200 xg for 15 minutes to obtain platelet-rich plasma (PRP). This PRP was centrifuged at 650×g for 10 minutes to obtain platelet precipitates. After washing with Ca^++ -free Tyrode's solution containing 2 mM ethylenebis(oxyethylenenitrilo)tetraacetic acid (hereinafter referred to as EGTA), the platelet precipitates were centrifuged again at 650×g for 10 minutes for washing. The resulting platelet precipitates were suspended in Ca^++ -free Tyrode's solution containing 0.25% bovine serum albumin to reach a density of 5×10^8 cells/ml. After allowing to stand for about 30 minutes, 1 mM CaCl2 or 1 mM EGTA was added to the suspension of the washed platelet. The mixture was allowed to stand for further 30 minutes, and then platelet aggregation was measured.
The platelet aggregation was measured with an aggregometer, ACGRETEC TE-500 (product of Erma Optical Co., Ltd.) to which the Born method was applied.
First, 10 μl portions of a test compound solution were added to 0.2 ml portions of the suspension of the washed platelet, while stirring at 1,000 rpm and at 37° C. After incubation at 37° C. for 3 minutes, 10 μl portions of a stimulating agent thrombin (final concentration : 0.05 U/ml) or platelet-activating factor (final concentration: 10^-10 M) were added thereto, respectively to initiate the reaction. The rate of platelet aggregation inhibition of the test compound were calculated from the maximum aggregation rate obtained by the use of the test compound and the maximum aggregation rate obtained by use of only the solvent used for dissolving the test compound, according to the following equation. The effect of the test compound was determined as the drug concentration which gave the inhibition rate of 50%. [formula] A: maximum aggregation rate in use of the solvent alone B: maximum aggregation rate in use of the test compound

IC50 (stimulating agent platelet-activating factor, final concentration 10^-10 M, read-out: IC50 (platelet aggregation inhibition, stimulating agent platelet-activating factor)): 45 µg/mL (≈ 102 µM) | IC50 (Platelet, stimulating agent thrombin, final concentration 0.05 U/ml, read-out: IC50 (platelet aggregation inhibition, stimulating agent thrombin)): 72 µg/mL (≈ 163 µM)
Structure (SMILES): CCCCCCCc1cc(O)cc(OC(=O)c2c(O)cc(O)cc2CCCCCCC)c1 [Compound 4]
inhibition of platelet aggregation, in words (stimulated with thrombin and platelet-activating factor): inhibited platelet aggregation
